This is an account of results in patent publication US20230295212A1 (ROME Therapeutics, Inc., priority 2022, published 2023).

For test [1], the target named is T1, LINE1 reverse transcriptase (recombinant MBP-tagged LINE1 protein (238-1061)) (Homo sapiens, UniProt O00370).
T1 construct: recombinant MBP-tagged LINE1 protein (238-1061); made in house
The test can be described thus: Homogeneous time-resolved fluorescence (HTRF) LINE1 RT assay. In kind it is biochemical. To be noted: triphosphate analogs, LINE1 enzyme 64 ng/well, 25° C. 60 minutes. As to the method:
Exemplary triphosphate analogs were tested for the ability to inhibit LINE1 reverse transcriptase using a homogeneous time-resolved fluorescence (HTRF) assay. Assay procedures and results are described below.
The LINE1 reverse transcriptase homogeneous time-resolved fluorescence (HTRF) assay was performed with recombinant MBP-tagged LINE1 protein (238-1061) (generated and purified according to procedures in Dai L. et al. BMC Biochemistry 2011; 12:18) in a 384-well format. Test compound was serially diluted in DMSO and further diluted in the assay buffer (50 mM Tris-HCl, 50 mM KCl, 10 mM MgCl2, 10 mM DTT, pH 8.1) to achieve a final DMSO concentration of 1%. The serially diluted compound was mixed with 64 ng/well of LINE1 enzyme, 5 nM of pre-annealed template/biotin-primer pair (synthesized at Generay Biotechnology), 10 nM of Fluorescein-12-dCTP fluorescent probe (PerkinElmer), and 1 μM dGTP/dATP/dTTP (ThermoFisher Scientific) in the assay buffer. The template/biotin-primer sequences were as follows:
After incubating at 25° C. for 60 minutes, the detection reagent (20 mM EDTA with streptavidin-terbium cryptate, Cisbio Bioassay) in the PPI buffer (Cisbio Bioassay) was added, and the mixture was incubated at 25° C. for 30 minutes. At the end of the incubation, fluorescence was read at ex/em=337/485 nm and ex/em=337/520 nm on an Envision 2104 plate reader (PerkinElmer). The fluorescence ratio at 520/485 nm was used for the calculation. […] The IC50 was calculated by fitting the compound dose inhibition curve with a 4-parameter non-linear regression equation.

The target in test [2] is T2, human telomerase (Homo sapiens, UniProt O14746).
T2 construct: endogenous in cells; host or cells: MCF-7 cell lysate
T2 sequence (O14746 whole entry): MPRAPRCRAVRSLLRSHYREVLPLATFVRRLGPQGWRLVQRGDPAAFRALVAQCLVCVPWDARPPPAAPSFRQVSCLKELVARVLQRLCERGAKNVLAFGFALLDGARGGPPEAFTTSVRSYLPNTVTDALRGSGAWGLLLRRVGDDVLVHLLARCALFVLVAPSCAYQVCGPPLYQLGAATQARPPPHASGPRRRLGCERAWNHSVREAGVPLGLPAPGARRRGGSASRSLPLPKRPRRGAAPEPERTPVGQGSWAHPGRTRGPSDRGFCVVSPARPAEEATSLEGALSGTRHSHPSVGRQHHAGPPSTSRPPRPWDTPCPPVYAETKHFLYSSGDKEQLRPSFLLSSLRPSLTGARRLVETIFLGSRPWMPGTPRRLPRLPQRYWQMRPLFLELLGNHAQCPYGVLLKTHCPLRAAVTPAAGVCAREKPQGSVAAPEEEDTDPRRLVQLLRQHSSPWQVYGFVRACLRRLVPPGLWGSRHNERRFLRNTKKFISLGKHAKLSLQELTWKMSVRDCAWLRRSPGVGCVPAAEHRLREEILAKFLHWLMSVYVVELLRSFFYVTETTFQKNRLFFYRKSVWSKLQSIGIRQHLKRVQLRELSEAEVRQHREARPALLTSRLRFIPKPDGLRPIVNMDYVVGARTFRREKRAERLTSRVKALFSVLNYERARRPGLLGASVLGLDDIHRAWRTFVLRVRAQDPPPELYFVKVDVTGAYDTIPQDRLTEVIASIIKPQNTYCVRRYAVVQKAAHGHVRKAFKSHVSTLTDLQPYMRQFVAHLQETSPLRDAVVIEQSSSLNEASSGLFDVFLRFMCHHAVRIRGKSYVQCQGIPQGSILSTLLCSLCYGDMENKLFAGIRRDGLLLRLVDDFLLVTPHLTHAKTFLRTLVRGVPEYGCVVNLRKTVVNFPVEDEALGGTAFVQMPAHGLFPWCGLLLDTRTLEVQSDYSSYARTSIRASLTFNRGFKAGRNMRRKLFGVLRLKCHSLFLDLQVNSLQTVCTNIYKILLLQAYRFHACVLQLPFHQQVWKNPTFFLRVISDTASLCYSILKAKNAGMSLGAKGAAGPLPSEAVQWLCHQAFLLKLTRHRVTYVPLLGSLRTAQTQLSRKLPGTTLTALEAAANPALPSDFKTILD
T2 sequence (O60832 whole entry partner): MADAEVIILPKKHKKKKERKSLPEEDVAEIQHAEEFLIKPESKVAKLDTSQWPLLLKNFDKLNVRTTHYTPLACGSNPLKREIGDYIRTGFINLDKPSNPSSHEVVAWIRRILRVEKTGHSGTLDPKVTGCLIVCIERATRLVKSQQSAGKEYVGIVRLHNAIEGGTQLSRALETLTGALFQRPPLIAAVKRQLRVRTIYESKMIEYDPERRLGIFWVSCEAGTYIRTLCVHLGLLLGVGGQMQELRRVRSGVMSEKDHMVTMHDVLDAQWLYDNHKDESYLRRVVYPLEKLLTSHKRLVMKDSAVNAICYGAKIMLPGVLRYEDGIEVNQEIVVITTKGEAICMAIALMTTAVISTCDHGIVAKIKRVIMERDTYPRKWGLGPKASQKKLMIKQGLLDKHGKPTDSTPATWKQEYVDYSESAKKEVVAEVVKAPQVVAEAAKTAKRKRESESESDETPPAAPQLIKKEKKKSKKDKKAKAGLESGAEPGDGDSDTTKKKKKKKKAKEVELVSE
T2 sequence (Q9NX24 whole entry partner): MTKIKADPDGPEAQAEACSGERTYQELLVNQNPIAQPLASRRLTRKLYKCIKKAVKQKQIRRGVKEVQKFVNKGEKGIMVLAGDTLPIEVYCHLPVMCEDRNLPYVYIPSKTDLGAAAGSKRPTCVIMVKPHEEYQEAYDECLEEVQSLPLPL
T2 sequence (Q9NPE3 whole entry partner): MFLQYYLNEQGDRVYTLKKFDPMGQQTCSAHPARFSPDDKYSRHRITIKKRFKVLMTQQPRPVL
T2 sequence (Q9NY12 whole entry partner): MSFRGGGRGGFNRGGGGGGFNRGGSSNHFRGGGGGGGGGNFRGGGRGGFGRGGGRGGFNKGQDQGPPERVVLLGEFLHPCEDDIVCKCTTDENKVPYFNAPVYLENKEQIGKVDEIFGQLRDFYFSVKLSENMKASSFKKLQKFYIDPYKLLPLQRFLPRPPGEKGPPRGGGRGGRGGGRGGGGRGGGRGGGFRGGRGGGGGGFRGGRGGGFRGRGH
The experiment in a line: Human telomerase PCR ELISA assay (MCF-7 cell lysate). As to conditions: triphosphates, 0.2 μg MCF-7 lysate. In kind it is biochemical. As to the method:
Exemplary compounds were tested for ability to inhibit human telomerase using a PCR ELISA assay. Off-target inhibition of human telomerase can result in undesired cellular toxicity, e.g., triggering replicative senescence and/or apoptotic cell death. Assay procedures and results are described below.
The human telomerase assay was performed with telomerase in the MCF-7 cell lysate using the Telo TAGGG Telomerase PCR ELISA^Plus kit (Roche) per manufacturer's instruction. MCF-7 cells were lysed in the lysis buffer and the supernatant was used for the assay. Test compound was serially diluted in water and mixed with 0.2 μg of MCF-7 lysate in PCR tubes and incubate at room temperature for 15 minutes. The PCR reaction mixture was then added, the tubes were transferred to a thermal cycler (Analytikjena) and the telomerase elongation reaction was performed for 30 minutes followed by 30 PCR cycles with the following protocol:
Mix 2.5 μL of PCR amplification product from above to 10 μl of denature reagent to each well of a PCR plate and incubate at room temperature for 10 minutes. Add in 100 μl of hybridization buffer T and mix well. Transfer 100 μl per well of the reaction mixture to the precoated MP module, incubate at 37° C. for 2 hours. Remove the hybridization solution, wash three times with the wash buffer, add anti-DIG-HRP solution, incubate at room temperature for 30 minutes. Remove the anti-DIG-HRP solution and wash five times with the wash buffer. Add TMB substrate and incubate at room temperature for 10 minutes. Measure the absorbance at 450 nm using Envision (PerkinElmer).

SMILES strings stand for the structures. Where a name gives a salt, the structure may show the parent alone.

In the case of `Nc1ccn([C@H]2C[C@H](O)[C@@](CCl)(COP(=O)(O)OP(=O)(O)OP(=O)(O)O)O2)c(=O)n1` [Compound 2-TP], the IC50 is 47.5 nM in test [1] and at most 1000 nM in test [2].
For the molecule `Nc1ccn([C@@H]2O[C@](CCl)(COP(=O)(O)OP(=O)(O)OP(=O)(O)O)[C@@H](O)[C@@H]2F)c(=O)n1` [Compound 40-TP], the 50% inhibitory concentration (IC50) is 831 nM in test [1] and above 100000 nM in test [2].
As for `Nc1nc(=O)n([C@H]2C[C@H](O)[C@@](CCl)(COP(=O)(O)OP(=O)(O)OP(=O)(O)O)O2)cc1F` [Compound 14-TP, ((2R,3S,5R)-5-(4-amino-5-fluoro-2-oxopyrimidin-1(2H)-yl)-2-(chloromethyl)-3-hydroxytetrahydrofuran-2-yl)methyl tetrahydrogen triphosphate TEA Salt], the concentration for half-maximal inhibition (IC50) in test [1] was 272 nM; in test [2], at most 1000 nM.
On to `CC[C@]1(COP(=O)(O)OP(=O)(O)OP(=O)(O)O)O[C@@H](n2ccc(N)nc2=O)C[C@@H]1O` [44-TP], for which the concentration for half-maximal inhibition (IC50) in test [1] is 108 nM; in test [2], 25000 to 50000 nM.
For `C#C[C@]1(COP(=O)(O)OP(=O)(O)OP(=O)(O)O)O[C@@H](n2ccc(N)nc2=O)[C@@H](F)[C@@H]1O` [Compound 35-TP] the same measures were 13.7 nM and above 100000 nM.
Turning to `Nc1nc(=O)n([C@@H]2O[C@](CCl)(COP(=O)(O)OP(=O)(O)OP(=O)(O)O)[C@@H](O)[C@@H]2F)cc1F` [Compound 67-TP], the results for the IC50 in test [1] and in test [2] were 430 nM and above 100000 nM, respectively.
On to `C=C[C@]1(COP(=O)(O)OP(=O)(O)OP(=O)(O)O)O[C@@H](n2ccc(N)nc2=O)C[C@@H]1O` [Compound 43-TP], for which the half-maximal inhibitory concentration (IC50) is 81 nM in test [1] and 1000 to 25000 nM in test [2].
